Experimental data as given in patent US3970642A, “Process for the conversion of niddamycin to leucomycin A1, leucomycin A3, carbomycin B and other antibiotics and related 3-O-esters” (Abbott Laboratories, priority 1974, dated 1976).
In brackets after ≈: the same amount, converted by molar mass.

How the values were obtained:
Type in all cases: cell-based
Mycoplasma pneumoniae FH = assay: Standard two-fold tube dilution test, activity against Mycoplasma pneumoniae FH; details: 144 h, PPLO broth, six days at 37°C, read-out: Minimum Inhibitory Concentration
Procedure: (§1) Three nid damycin and two dihydroniddamycin compounds were tested for their activity against Streptococcus pyogenes C203, and Diplococcus pneumoniae 6301 and Mycoplasma pneumoniae FH.
(§2) A standard two-fold tube dilution test was used. The medium inoculum were varied with each culture.
In the test for activity against Mycoplasma pneumoniae FH, 4.5 ml. portions of PPLO broth were used with 0.5 ml. of 1:100 dilution culture. The test was incubated for six days at 37°C.

[1] = tested on: Streptococcus pyogenes C203; assay: Standard two-fold tube dilution test, activity against Streptococcus pyogenes C203; details: brain-heart infusion broth, 24 hours at 37°C, read-out: Minimum Inhibitory Concentration
Procedure: as §1, §2
In the test for activity against Streptococcus pyogenes C203, 5 ml. portions of brain-heart infusion broth were used with 0.1 ml. of 1:100 dilution culture. The test was incubated for 24 hours at 37°C.

[2] = tested on: Diplococcus pneumoniae 6301; assay: Standard two-fold tube dilution test, activity against Diplococcus pneumoniae 6301; details: Streptococcus pneumoniae, brain-heart infusion broth and 20% horse serum, 24 hours at 37°C, read-out: Minimum Inhibitory Concentration
Procedure: as §1, §2
In the test for activity against Diplococcus pneumoniae 6301, 5 ml. portions of brain-heart infusion broth and 20% horse serum were used with 0.1 ml. of 1:100 dilution culture. The test was incubated for 24 hours at 37°C.

| SMILES | MIC (Mycoplasma pneumoniae FH) [mg/L] | MIC [1] [mg/L] | MIC [2] [mg/L] |
| --- | --- | --- | --- |
| COC(CC1CC(C)C(=O)C=CC=CCC(C)OC(=O)CC(O)C(OC)C1OC1OC(C)C(OC2CC(C)(O)C(OC(=O)CC(C)C)C(C)O2)C(N(C)C)C1O)OC (stereo not drawn) [Compound 2, Niddamycin dimethyl acetal] | 25 (≈ 30.1 µM) | 0.78 (≈ 0.94 µM) | < 1.56 |
| COC(CC1CC(C)C(=O)C=CC=CCC(C)OC(=O)CC(OC(C)=O)C(OC)C1OC1OC(C)C(OC2CC(C)(O)C(OC(=O)CC(C)C)C(C)O2)C(N(C)C)C1OC(C)=O)OC (stereo not drawn) [Compound 3B, 2',3-Di-(O)-acetylniddamycin dimethyl acetal] | > 100 | > 100 | > 100 |
| COC(CC1CC(C)C(O)C=CC=CCC(C)OC(=O)CC(O)C(OC)C1OC1OC(C)C(OC2CC(C)(O)C(OC(=O)CC(C)C)C(C)O2)C(N(C)C)C1O)OC (stereo not drawn) [Compound 4, 9-Dihydroniddamycin B dimethyl acetal] | 50 (≈ 60.1 µM) | 6.2 (≈ 7.45 µM) |  |
| COC(CC1CC(C)C(=O)C=CC=CCC(C)OC(=O)CC(OC(C)=O)C(OC)C1OC1OC(C)C(OC2CC(C)(O)C(OC(=O)CC(C)C)C(C)O2)C(N(C)C)C1O)OC (stereo not drawn) [Compound 6B, 3-(O)-Acetylniddamycin dimethyl acetal] | 25 (≈ 28.7 µM) | 12.5 (≈ 14.3 µM) |  |
| COC(CC1CC(C)C(O)C=CC=CCC(C)OC(=O)CC(OC(C)=O)C(OC)C1OC1OC(C)C(OC2CC(C)(O)C(OC(=O)CC(C)C)C(C)O2)C(N(C)C)C1O)OC (stereo not drawn) [Compound 8B, 3-(O)-Acetyl-9-dihydroniddamycin B dimethyl acetal] | 50 (≈ 57.2 µM) | 25 (≈ 28.6 µM) |  |
